One series has as its system leukemic CEM cells. Nature of the series: Killing of leukemic CEM T-cells (DNA fragmentation). Type of series: cell-based.
Series [1] deals with RNAPII C-terminal domain Ser2 phosphorylation. The series can be described thus: Phenylephrine-induced phosphorylation of RNAPII in ventricular cardiac myocytes. It is filed as cell-based, rat. From the text:
To test Wogonin in hypertrophic conditions, ventricular cardiac myocytes from neonatal rats were isolated. Hypertrophy was induced by stimulating the cells (cardiomyocytes) with phenylephrine.

In a further series the target is CDK4 (Homo sapiens, UniProt P11802). The series can be described thus: Inhibition of the kinase CDK4. It is filed as biochemical. The protocol:
(§1) Contrary to this, the known compound Quercetin does inhibit the kinases CDK4 and CDK6 (applied at a dose of 50 µM).

The subject of series [2] is normal proliferating T cells (d6 T cells). Here is the method: Apoptotic cell death was determined by DNA fragmentation after 48 hours.
Since proliferating cells are in general more susceptible to drug-induced apoptotic cell death, the T cells were activated through PHA stimulation and cultured for further 5 days under supplementation of IL-2 (so called d6 T cells).

The next series deals with CDK6 (Homo sapiens, UniProt Q00534). Nature of the series: Inhibition of the kinase CDK6. Type of series: biochemical. The protocol: as §1
The target of a further series is CDK2 (Homo sapiens, UniProt P24941). Nature of the series: Inhibition of the cellular kinase CDK2. It is filed as biochemical.
Series [3] concerns ventricular cardiac myocytes. The series can be described thus: Tolerance of the compound by ventricular cardiac myocytes. It is filed as cell-based, rat. As to conditions: even at higher doses. From the text:
To test Wogonin in hypertrophic conditions, ventricular cardiac myocytes from neonatal rats were isolated.

In another series the target is T1, CDK9 (Homo sapiens, UniProt P50750).
T1 construct: endogenous in cells; host or cells: CEM
The series can be described thus: Duration of the inhibitory effect on CDK9 in CEM. Type of series: cell-based. As to conditions: dose of 50 μM in CEM.

Molecules are shown by their SMILES. Read-outs that look alike come from different tables or passages of the source.

Chain of CDK6 (Q00534 whole entry, species assumed): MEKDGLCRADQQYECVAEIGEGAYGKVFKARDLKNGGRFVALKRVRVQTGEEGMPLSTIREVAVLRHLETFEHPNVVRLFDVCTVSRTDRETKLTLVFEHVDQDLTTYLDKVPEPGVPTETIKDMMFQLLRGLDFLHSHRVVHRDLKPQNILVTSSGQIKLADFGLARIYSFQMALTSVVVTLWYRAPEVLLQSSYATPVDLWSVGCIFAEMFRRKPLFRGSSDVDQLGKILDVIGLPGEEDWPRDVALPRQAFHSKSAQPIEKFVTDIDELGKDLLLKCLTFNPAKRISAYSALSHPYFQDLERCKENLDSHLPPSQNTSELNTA
Chain of CDK4 (P11802 whole entry, species assumed): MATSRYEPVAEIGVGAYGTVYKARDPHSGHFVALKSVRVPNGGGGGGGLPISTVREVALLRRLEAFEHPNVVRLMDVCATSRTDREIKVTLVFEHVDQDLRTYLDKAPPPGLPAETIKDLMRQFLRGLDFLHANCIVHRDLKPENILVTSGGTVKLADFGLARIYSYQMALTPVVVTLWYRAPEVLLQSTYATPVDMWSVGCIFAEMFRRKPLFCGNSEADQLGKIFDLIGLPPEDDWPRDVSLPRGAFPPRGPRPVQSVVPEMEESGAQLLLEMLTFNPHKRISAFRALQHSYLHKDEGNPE
T1 sequence (P50750 whole entry): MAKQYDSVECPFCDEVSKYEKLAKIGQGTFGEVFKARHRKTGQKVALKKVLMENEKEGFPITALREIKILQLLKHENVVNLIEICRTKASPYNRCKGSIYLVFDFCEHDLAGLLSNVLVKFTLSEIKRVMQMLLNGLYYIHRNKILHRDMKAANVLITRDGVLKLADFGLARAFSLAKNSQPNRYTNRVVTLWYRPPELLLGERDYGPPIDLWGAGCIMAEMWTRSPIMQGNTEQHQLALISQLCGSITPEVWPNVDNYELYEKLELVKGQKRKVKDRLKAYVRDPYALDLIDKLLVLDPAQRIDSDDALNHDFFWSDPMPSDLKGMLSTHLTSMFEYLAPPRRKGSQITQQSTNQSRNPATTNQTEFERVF
T1 sequence (O60563 whole entry partner): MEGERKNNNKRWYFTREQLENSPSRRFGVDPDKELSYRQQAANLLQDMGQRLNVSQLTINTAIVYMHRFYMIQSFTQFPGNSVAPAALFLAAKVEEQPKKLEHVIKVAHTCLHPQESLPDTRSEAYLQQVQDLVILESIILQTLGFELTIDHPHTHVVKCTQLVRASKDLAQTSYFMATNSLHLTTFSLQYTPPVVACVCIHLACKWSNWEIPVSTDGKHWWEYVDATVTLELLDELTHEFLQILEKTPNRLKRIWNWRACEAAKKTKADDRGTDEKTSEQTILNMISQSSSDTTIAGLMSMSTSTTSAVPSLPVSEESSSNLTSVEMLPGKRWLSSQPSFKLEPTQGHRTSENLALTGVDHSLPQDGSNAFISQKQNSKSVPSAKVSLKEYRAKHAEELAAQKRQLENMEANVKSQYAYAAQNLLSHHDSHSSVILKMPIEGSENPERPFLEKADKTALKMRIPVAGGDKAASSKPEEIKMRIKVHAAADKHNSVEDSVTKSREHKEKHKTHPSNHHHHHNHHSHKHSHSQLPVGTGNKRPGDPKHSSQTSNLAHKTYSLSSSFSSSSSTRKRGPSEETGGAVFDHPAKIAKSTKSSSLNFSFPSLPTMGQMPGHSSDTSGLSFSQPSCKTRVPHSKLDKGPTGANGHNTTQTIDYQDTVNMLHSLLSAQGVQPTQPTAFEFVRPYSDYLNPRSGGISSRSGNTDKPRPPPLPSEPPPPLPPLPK
Experimental for CDK2: The amount of phosphorylated substrate was determined by Western Blot using phospho-specific antibodies.

`CN1CC[C@H](c2c(O)cc(O)c3c(=O)cc(-c4ccccc4Cl)oc23)[C@H](O)C1` [Flavopiridol, reference compound]: the “concentration required to kill leukemic cells” value with leukemic CEM cells is listed as around 500 nM. Also, in series [1] (no concentration or cell type given), the “inhibition of phosphorylation of the RNAPII C-terminal domain at Ser2 (in words)” value is “inhibits phosphorylation”.
On to `O=c1c(O)c(-c2ccc(O)c(O)c2)oc2cc(O)cc(O)c12` [Quercetin, reference compound], for which the “inhibition of CDK4 (in words)” value against CDK4 (applied at a dose of 50 μM) is on record as “does inhibit”. For the same molecule, the DNA-fragmentation result in series [2] (human, 48 h, 10 μM) is given as “more than 15%”. The “inhibition of CDK6 (in words)” value on CDK6 (applied at a dose of 50 μM) is given as “does inhibit”.
For the molecule `COc1c(O)cc(O)c2c(=O)cc(-c3ccccc3)oc12` [Wogonin, 5,7-Dihydroxy-8-methoxy-flavone], the “inhibition of CDK2 (in words)” value against CDK2 was “does not strongly inhibit”. Moreover, the “inhibition of CDK4 (in words)” value at CDK4 (applied at a dose of 50 μM) was “do not inhibit”; against CDK4 (no concentration given), “does not strongly inhibit”. Besides, the DNA-fragmentation entry in series [2] (T-cells, 48 hours, dose of 10 μM) is “less than 5%”. Besides, in series [2] (T-cells, 48 hours, doses of 10 μM, 50 μM and 100 μM), the “DNA-fragmentation compared with Quercetin (in words)” value is “much less DNA-fragmentation”. Moreover, the “toxicity to normal T cells compared to other flavones tested (in words)” value in series [2] (d6 T cells) was “particularly low toxicity”. The “toxicity to normal proliferating T cells (in words)” value in series [2] (up to concentrations of 100 μM, in comparison to leukemic CEM cells) is “no or very low toxicity”. The “tolerance by the cells (in words)” value in series [3] is “well supported by the cells”. Further, the “duration of inhibitory effect on CDK9 compared with Quercetin (in words)” value on CDK9 is given as “much longer inhibitory effect”. The “inhibition of phenylephrine-induced phosphorylation of RNAPII (in words)” value in series [1] (neonatal rat cardiomyocytes, 50 μM in a solution) is on record as “almost completely inhibited”. In addition, the “inhibition of CDK6 (in words)” value against CDK6 (applied at a dose of 50 μM) is on record as “do not inhibit”; at CDK6 (no concentration given), “does not strongly inhibit”.

For the origin of these results see patent US20130225530A1 (priority 2010, published 2013).
